Assay results published in patent US20140045908A1, “HSP90 INHIBITORY COMPOUNDS IN TREATING JAK/STAT SIGNALING-MEDIATED CANCERS” (SYNTA PHARMACEUTICALS CORP., priority 2011, published 2014).

Legend:
Type in all cases: cell-based, human
[1] = system: JAK/STAT signaling in SET-2 cells; experiment: Western blot of JAK/STAT signaling in SET-2 cells; details: 24 h
Description: SET-2 cells were dosed with the indicated concentrations of ganetespib or 17-AAG for 24 h and analyzed to determine JAK/STAT protein and target levels using the antibodies indicated.
(§1) Cells were disrupted in lysis buffer (CST) and solubilized in 2% SDS. Xenograft tumors (average volume of 100-200 mm3) were excised, cut in half, and flash frozen in liquid nitrogen. Each tumor fragment was lysed in 0.5 mL of lysis buffer using a FastPrep-24 homogenizer and Lysing Matrix A (MP Biomedicals, Solon, Ohio, USA) and lysates clarified by centrifugation. Equal amounts of proteins were resolved by SDS-PAGE and immunoblotted with indicated antibodies. The antigen-antibody complex was visualized and quantitated using an Odyssey system (LI-COR, Lincoln, Nebr., USA).

[2] = system: JAK2 dependent signaling in HEL92.1.7 cells; experiment: Western blot of JAK/STAT signaling in HEL92.1.7 cells; details: 250 nM ganetespib or 1000 nM P6
Description: FIG. 2 compares the more durable ganetespib durable inhibition of JAK/STAT signaling to P6. HEL92.1.7 cells were cultured in the presence of 250 nM Ganetespib or 1000 nM P6 and harvested at the indicated time points. The levels of JAK2, phosphorylated and total STAT3 and STAT5, phospho-AKT, phospho-ERK and GAPDH were determined by western blot.
as §1

HEL92.1.7 cells [3] = experiment: Cell viability assay (AlamarBlue, 72 h)
Description: All cell lines were obtained from the ATCC (Rockville, Md., USA), with the exception of SET-2 cells which were purchased from the German Collection of Microorganisms and Cell Cultures (DSMZ, Germany). Cells were maintained and cultured according to standard techniques at 37° C. in 5% (v/v) CO2 using culture medium recommended by the supplier.
Cells were grown in 96-well plates based on optimal growth rates determined empirically for each line. Twenty-four hours after plating, cells were dosed with the indicated compound or DMSO (0.3%) for 72 h. AlamarBlue (Invitrogen, Carlsbad, Calif., USA) was added (10% v/v) to the cells, and the plates were incubated for 3 h and subjected to fluorescence detection (Ex=545 nm, Em=600 nm) in a SpectraMax Plus 384 microplate reader (Molecular Devices, Sunnyvale, Calif., USA). Data are normalized to percent of control, with IC50 values based on a four-parameter logistic dose response curve (model 205) using XLfit version 5.1 from IDBS (Guildford, U.K.).

[4] = system: JAK2/STAT3 signaling in HCC827 cells; experiment: Western blot of constitutive and IL-6 induced STAT3 activity in HCC827 cells
Description: HCC827 lung cancer cells were treated with increasing concentrations of ganetespib or P6 for 24 h followed by a 15 min stimulation with or without 50 ng/ml human recombinant IL-6. The levels of JAK2, total and phospho-STAT3, and PIM2 were analyzed by western blot. GAPDH is included as a loading control.
as §1

[5] = system: Cdk1, phospho-Chk2, cyclins in HEL92.1.7 cells; experiment: Western blot of cell cycle proteins in HEL92.1.7 cells; details: ganetespib 250 nM or P6 1000 nM, 24-48 h
Description: Cells were harvested at the indicated time points and the levels of total and phospho-Cdk1, phospho-Chk2 and GAPDH analyzed by western blot.
FIG. 12 illustrates the effects of ganetespib on JAK/STAT and cell cycle protein expression. HEL92.1.7 cells were treated with 100 nM ganetespib and subject to western blot to determine the levels of Cdk1, cyclin B1, cyclin A1, JAK2, total and phospho-STAT3, and GAPDH at hourly intervals over an 11 h time course.
as §1

HEL92.1.7 cells [6] = experiment: Flow cytometry cell cycle analysis
Description: HEL92.1.7 cells were plated at 0.5×10^6 cells/mL and treated as indicated. Cells were harvested and stained with propidium iodide using the BD Cycle TEST PLUS Reagent Kit (BD Biosciences, San Jose, Calif., USA) according to the manufacturer's instructions. Twenty thousand cells were analyzed for their DNA content using a FACS Caliber cytometer (BD Biosciences).

[7] = system: JAK/STAT target and cell cycle gene expression in HEL92.1.7 cells; experiment: RNA expression profiling (RT-PCR, Affymetrix) in HEL92.1.7 cells; details: 4 hour P6 (1000 nM), 24 hour ganetespib (250 nM)
Description: HEL92.1.7 cells were treated with DMSO, P6 (100 or 1000 nM) or ganetespib (25 or 250 nM) for 4 h or 24 h, and total RNA extracted using Trizol (Invitrogen). RNA was purified with the RNeasy kit (Qiagen, Hilden, Germany) and converted to cDNA via an iScript kit (BioRad, Hercules, Calif., USA). Oligonucleotide primers were purchased from SABiosciences (Frederick, Md., USA). PCR was done with iQ SYBR Green Supermix (Bio-Rad), and levels of the tested genes were normalized to HPRT expression using the comparative Ct method.
Biotinylated aRNA was generated by in vitro transcription using Affymetrix GeneChip Expression IVT labeling kit (Affymetrix, Santa Clara, Calif., USA). Fifteen micrograms of labeled aRNA was fragmented and hybridized to Affymetrix GeneChip Human Genome U133 Plus 2 arrays and scanned using a GeneChip Scanner (Affymetrix). Array data were analyzed with the Affymetrix Expression Console Software utilizing the MASS algorithm. In order to generate a threshold for identifying probe sets that have large differences between 1000 nM P6 (4 h) and 250 nM ganetespib (24 h) arrays and their controls in the absence of treatment replicates, data from four control arrays (DMSO only; two at 4 h, and two at 24 h) were used to create an expression level dependent fold-difference envelope that reflects the increasing measurement variability as expression level decreases. This envelope, used in lieu of a fixed fold-difference criteria, was formed by identifying the xth percentile expression-level difference (where x was large, typically 99.9%) at each mean expression level bin. To achieve this, data were used from the six possible comparisons from the four DMSO-only arrays. The resulting, smoothed threshold fold-difference envelope was then applied to the two compound-treated/control array pairs to identify those probe-sets that have large expression level differences between treatment and control. For hierarchical analysis, genes with greater than two fold changes in expression with 250 nM ganetespib were clustered using established algorithms in Cluster (49) and a subset visualized by TreeView.

[8] = 24 h, absence of external ligand

| SMILES | fold less potent than ganetespib, effects on JAK/STAT signaling [1] | JAK2 dependent signaling (phospho-STAT3, phospho-STAT5, ERK signaling) [2] | fold less potency than ganetespib, loss of cellular viability (HEL92.1.7 cells [3]) | IC50 (HEL92.1.7 cells [3]; 72 h, Alamar blue, read-out: IC50, loss of cellular viability) | JAK2 expression [4, 8] | constitutive STAT3 activity [4, 8] | JAK/STAT signaling stimulated by exogenous IL-6 ([4]; 24 h then 15 min 50 ng/ml IL-6) | Cdk1 protein expression [5] | cell cycle distribution (HEL92.1.7 cells [6]) | expression of JAK/STAT target genes (SOCS and PIM family members) [7] |
| --- | --- | --- | --- | --- | --- | --- | --- | --- | --- | --- |
| C=CCNC1=C2C[C@@H](C)C[C@H](OC)[C@H](O)[C@@H](C)/C=C(\C)[C@H](OC(N)=O)[C@@H](OC)/C=C\C=C(/C)C(=O)NC(=CC1=O)C2=O [17-AAG, reference compound] | 200 fold | – | – | – | – | – | – | – | – | – |
| CC(C)(C)c1nc2c3cc[nH]c(=O)c3c3cc(F)ccc3c2[nH]1 [P6, reference compound] | – | blocked JAK2 dependent signaling | 30 fold | 614 nM | did not influence total JAK2 protein levels | downregulated constitutive STAT3 activity | blocked JAK/STAT signaling stimulation | no effect on Cdk1 expression | accumulation in G1 phase only, without the loss of S phase or G2/M arrest | downregulated |
